Like-named read-outs stand apart in the source and are kept apart here.
Tests used:
[1] = test system: P. falciparum stages IV–V gametocytes; test: Gametocytocidal ATP-depletion assay (gametocyte ATP bioluminescence); format: cell-based, Plasmodium falciparum; conditions: for inhibition at 2 µM: Plasmodium falciparum, mean
Method in brief: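 Purified stage IV–V gametocytes (12,500/well) incubated with compound for 48 h at 37 °C under 3% O2/5% CO2. ATP measured by BacTiter-Glo luminescence as a viability surrogate; hits tested at 2 μM single concentration.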

HepG2 cells = test: HepG2 cytotoxicity assay; format: cell-based
Method in brief: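 After compound incubation, plates and CellTiter-Glo reagent were brought to room temperature for 30 min. The reagent was then added, and luminescence was read after a 10 min room-temperature stabilization.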

[2] = test system: P. falciparum stage V female gametocytes; test: P. falciparum female gametocyte activation assay (Pf FGAA), 24 h or 48 h preincubation, Pfs25 expression readout; format: cell-based, Plasmodium falciparum NF54; conditions: for Pf FGAA classification: SLOW / FAST / GAMETE from activity at 48h, 24h, 0h incubation
Method in brief: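 Purified stage V gametocytes from P. falciparum NF54 gametocyte cultures were exposed to compounds for 24 h or 48 h at 37 °C under 3% O2/5% CO2, then activated by temperature drop plus xanthurenic acid. Activated females were stained with Cy3-anti-Pfs25 (0.5 μg ml^−1) for 24 h at 26 °C and counted by high-content imaging; pIC50 by nonlinear regression.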

[3] = test system: P. falciparum asexual blood stages; conditions: cited from earlier work; for IC50: read-out: Pf Asexual blood stages XC50
[4] = test system: P. falciparum female gametes; test: Pf FGAA with compounds added 30 min after triggering gametocyte activation (gamete-targeting); format: cell-based, Plasmodium falciparum NF54; conditions: 0h incubation time
[5] = 24h incubation time, read-out: Pf FGAA IC50 (µM) 24h
[6] = mean, read-out: Gametocytes mean Pf FGAA IC50
[7] = TCAMS data, ref 1 (Gamo et al., 2010)
[8] = TCAMS data, ref 1 (Gamo, F. J. et al., Nature 465, 305-310, 2010)
[9] = HepG2 TOX50 versus Pf FGAA IC50
[10] = Plasmodium falciparum, 24h incubation time, read-out: Pf FGAA IC50 (µM) 24h
[11] = Plasmodium falciparum, P. falciparum female gametocytes, mean, read-out: Gametocytes mean Pf FGAA IC50
[12] = TCAMS asexual blood stage data, ref 1 (Gamo, F. J. et al., Nature 465, 305-310, 2010)
[13] = mean, P. falciparum female gametocyte activation assay, read-out: Gametocytes mean Pf FGAA IC50
[14] = P. falciparum female gametocytes, mean, read-out: Gametocytes mean Pf FGAA IC50

| Structure (SMILES) | HepG2 cells mean TOX50 (HepG2 cells; mean) [µM] | IC50 [2, 5] [µM] | Pf FGAA classification [2] | IC50 [3, 7] [nM] | Pf Asexual stages XC50 [3, 8] [µM] | IC50 [4] [µM] | HepG2 cells mean TOX50 (HepG2 cells; HepG2 cells; mean) [µM] | IC50 [3, 12] [nM] | Gametocytes mean ATP inhibition at 2µM [1] [%] | IC50 [2, 14] [µM] | further results |
| --- | --- | --- | --- | --- | --- | --- | --- | --- | --- | --- | --- |
| COc1cccc(CCNC(C)Cc2ccc(OCCCCOc3ccccc3)cc2)c1 (stereo not drawn) [TCMDC-140020] | 1.46 | 3.72 | SLOW | 740 | 0.74 | > 20 |  |  |  |  | Gametocytes mean ATP inhibition at 2µM (%) [1]: 8.01%; IC50 [2, 6]: 1.51 µM |
| NC1CCN(CCc2ccc(NS(=O)(=O)c3ccc(-c4ccccc4)cc3)cc2)CC1 [TCMDC-134085] |  |  | FAST |  | 1.02 |  | 7.17 | 1020 |  |  | inhibition at 2 µM [1]: -6.2%; Selectivity ratio (HepG2 cells; [9]): 9.58; IC50 [2, 10]: 1.98 µM; IC50 [2, 11]: 0.75 µM; IC50 ([4]; Plasmodium falciparum): > 20 µM |
| CN1CCN(CCCNc2ncc3c(-c4ccc(NC(=O)Nc5cc(C(F)(F)F)ccc5F)c(F)c4)nn(C)c3n2)CC1.O=C(O)C(F)(F)F [TCMDC-141611] |  | 11.1 | SLOW |  | 0.86 | 11.3 |  | 860 | -15.14 |  | HepG2 cells mean TOX50 (HepG2 cells; mean; HepG2 cells): 4.90 µM; IC50 [2, 13]: 0.87 µM |
| CN(C)CCCNCc1ccc(-c2ccc(C(F)(F)F)cc2)cc1 [TCMDC-140011] | 4.90 |  | FAST | 870 | 0.87 |  |  |  |  |  | inhibition at 2 µM [1]: 1.03%; Selectivity ratio (HepG2 cells; HepG2 TOX50 vs Pf FGAA IC50): 2.92; IC50 [2, 10]: 1.87 µM; IC50 ([2]; Plasmodium falciparum, mean, read-out: Gametocytes mean Pf FGAA IC50): 1.68 µM; IC50 ([4]; Plasmodium falciparum): > 20 µM |
| N#CC(c1ccc(Br)cc1)c1ccc2c(C(F)(F)F)cc(C(F)(F)F)nc2n1 (stereo not drawn) [TCMDC-123754] |  |  | SLOW |  | 0.44 |  | 2.32 | 440 |  |  | inhibition at 2 µM [1]: -2.55%; Selectivity ratio (HepG2 cells; [9]): 2.01; IC50 [2, 10]: > 20 µM; IC50 [2, 11]: 1.16 µM; IC50 ([4]; Plasmodium falciparum): > 20 µM |
| Cc1cccc2nc(-c3ccc(-c4ccc(CNCc5ccc(CN)cc5)cc4)cc3)[nH]c12.O=C(O)C(F)(F)F [TCMDC-132813] |  | 0.21 | FAST |  | 0.72 | 4.35 | 18.09 | 720 | 13.49 | 2.16 |  |
| O=C(CCC1CCCC1)N(Cc1ccc(-c2ccc(CNCCc3ccccc3)cc2)cc1)C1CCCNC1.O=C(O)C(F)(F)F (stereo not drawn) [TCMDC-141444] |  | 6.85 | SLOW |  | 1.22 | 15.3 |  | 1220 | 26.17 |  | HepG2 cells mean TOX50 (HepG2 cells; mean; HepG2 cells): 5.19 µM; IC50 [2, 13]: 1.98 µM |
| O=C(c1ccc([N+](=O)[O-])o1)N1CCN(c2nc3c(F)cc(F)cc3s2)CC1 [TCMDC-125149] |  | 1.25 | FAST |  | 0.97 | > 20 | >100 | 970 | 5.52 | 1.31 | HepG2 cells TOX50 (HepG2 cells; HepG2 cells): >100 µM |
| CCn1c(-c2nonc2N)nc2c(-c3cccc(NC(=O)Nc4ccc5c(c4)CCC5)c3)ncc(OCCCN)c21.O=C(O)C(F)(F)F [TCMDC-136191] | 7.42 | 6.46 | SLOW | 780 | 0.78 | > 20 |  |  |  |  | Gametocytes mean ATP inhibition at 2µM (%) [1]: -19.55%; IC50 [2, 6]: 1.03 µM |
| CCN(CCNS(C)(=O)=O)c1ccc(N)c(C)c1.O.O=S(=O)(O)O [TCMDC-125836] |  | 0.3 | FAST |  | 0.88 | 3.56 | 26.14 | 880 | 7.23 | 1.14 |  |
| CCCC(=O)NC(c1ccc(C)cc1)c1ccc2cccnc2c1O (stereo not drawn) [TCMDC-123605] |  |  | FAST |  | 0.96 |  | 9.22 | 960 |  |  | inhibition at 2 µM [1]: 20.2%; Selectivity ratio (HepG2 cells; [9]): 5.32; IC50 [2, 10]: 1 µM; IC50 [2, 11]: 1.73 µM; IC50 ([4]; Plasmodium falciparum): 3.99 µM |
| O=C(NCC1CCN(Cc2cccc(C(F)(F)F)c2)C1)c1cc(-c2cccc(F)c2)cs1.O=C(O)C(F)(F)F (stereo not drawn) [TCMDC-134484] |  | 2.82 | SLOW |  | 1.18 | > 20 | 18.87 | 1180 | -3.56 | 2.26 |  |
| O=C(Nc1nc(-c2ccccn2)cs1)c1ccc(Br)s1 [TCMDC-123868] |  | 0.14 | GAMETE |  | 1.06 | 2.14 | 37.44 | 1060 | 29.36 | 1.16 |  |
| O=C(NCC1CCN(Cc2cccc(C(F)(F)F)c2)C1)c1cc(-c2cccc(Cl)c2)cs1.O=C(O)C(F)(F)F (stereo not drawn) [TCMDC-134485] |  | 12 | SLOW |  | 0.80 | > 20 | 16.03 | 800 | 2.16 | 0.89 |  |
| CN1CCN(CCCNCc2ccccc2-c2cccc(CNCc3ccc4c(c3)OCO4)c2)CC1.O=C(O)C(F)(F)F [TCMDC-140476] | 1.51 | 5.7 | SLOW | 790 | 1.07 | > 20 |  |  |  |  | Gametocytes mean ATP inhibition at 2µM (%) [1]: -1.87%; IC50 [2, 6]: 1.64 µM |
| CNCC(C)(C)c1nc(-c2ccc(Cl)c(O)c2)c(-c2ccncc2)[nH]1.Cl [TCMDC-140762] | 13.52 | 1.06 | GAMETE | 740 | 0.74 | 0.61 |  |  |  |  | Gametocytes mean ATP inhibition at 2µM (%) [1]: -1.34%; IC50 [2, 6]: 0.88 µM |
| CC(Cc1ccc(NC(=O)c2ccc(CC(C)NCc3ccc(Cl)cc3)cc2)cc1)NCCc1cccc(Cl)c1 (stereo not drawn) [TCMDC-139810] | 4.03 | 9.9 | SLOW | 450 | 0.45 | > 20 |  |  |  |  | Gametocytes mean ATP inhibition at 2µM (%) [1]: -5.12%; IC50 [2, 6]: 0.86 µM |

— PMC5442318, “Hundreds of dual-stage antimalarial molecules discovered by a functional gametocyte screen” (Nature Communications, 2017)
